The values that follow come from US6933304B2, “Heteroarylalkanoic acids as integrin receptor antagonists” (Pharmacia Corporation, priority 2000, dated 2005).

Structures are written as SMILES.

Experiment [1] deals with T1, αVβ3 integrin (293-β3 cells) (Homo sapiens, UniProt P05106+P06756).
T1 construct: expressed in transfected cells; host or cells: 293 human embryonic kidney cells (293-β3)
In words: 293-β3 cell adhesion assay (adhesion to immobilized vitronectin). Particulars: 200 uM Mn2+, read-out: 293-β3 (IC50 <10 μM). The class given is cell-based. From the text: While the β3 subunit of αVβ3 is only known to complex with αV or αIIb, the αV subunit complexes with multiple β subunits. The three αV integrins most homologous with αVβ3 are αVβ1, αVβ5 and αVβ6, with 43%, 56% and 47% amino acid identity in the β subunits, respectively. To evaluate the selectivity of compounds between the integrins αVβ3 and αVβ6, cell-based assays were established using the 293 human embryonic kidney cell line. 293 cells express αVβ1, but little to no detectable αVβ3 or αVβ6. cDNAs for β3 and β6 were transfected separately into 293 cells to generate 293-β3 and 293-β6 cells, respectively. High surface expression of αVβ3 and αVβ6 was confirmed by flow cytometry. Conditions were established for each cell line in which cell adhesion to immobilized human vitronectin was mediated by the appropriate integrin, as determined by a panel of integrin-specific, neutralizing monoclonal antibodies. Briefly, cells were incubated with inhibitor in the presence of 200 uM Mn^2+, allowed to adhere to immobilized vitronectin, washed, and adherent cells are detected endogenous alkaline phosphatase and para-nitrophenyl phosphate. An 8-point dose-response curve using either 10-fold or 3-fold dilutions of compound was evaluated by fitting a four-parameter logistic, nonlinear model (using SAS).

For experiment [2], the target named is T2, Human fibrinogen receptor (IIb/IIIa) (Homo sapiens, UniProt P05106+P08514).
T2 construct: Human fibrinogen receptor (IIb/IIIa) was purified from outdated platelets; from tissue; host or cells: outdated human platelets
In words: Purified IIb/IIIa receptor assay (solid phase receptor assay, SPRA). It counts as binding. The conditions noted are these: selectivity ratio: IC50 αIIbβ3 (solid phase receptor assay) over IC50 β3. The text has this: Human fibrinogen receptor (IIb/IIIa) was purified from outdated platelets. (Pytela, R., Pierschbacher, M. D., Argraves, S., Suzuki, S., and Rouslahti, E. “Arginine-Glycine-Aspartic acid adhesion receptors”, Methods in Enzymology 144(1987):475-489.) Human vitronectin was purified from fresh frozen plasma as described in Yatohgo, T., Izumi, M., Kashiwagi, H., and Hayashi, M., “Novel purification of vitronectin from human plasma by heparin affinity chromatography,” Cell Structure and Function 13(1988):281-292. Biotinylated human vitronectin was prepared by coupling NHS-biotin from Pierce Chemical Company (Rockford, IL) to purified vitronectin as previously described. (Charo, I. F., Nannizzi, L., Phillips, D. R., Hsu, M. A., Scarborough, R. M., “Inhibition of fibrinogen binding to GP IIb/IIIa by a GP IIIa peptide”, J. Biol. Chem. 266(3)(1991): 1415-1421.) Assay buffer, OPD substrate tablets, and RIA grade BSA were obtained from Sigma (St. Louis, Mo.). Anti-biotin antibody was obtained from Sigma (St. Louis, Mo.). Nalge Nunc-Immuno microtiter plates were obtained from (Rochester, N.Y.). ADP reagent was obtained from Sigma (St. Louis, Mo.).
This assay is essentially the same reported in Niiya, K., Hodson, E., Bader, R., Byers-Ward, V. Koziol, J. A., Plow, E. F. and Ruggeri, Z. M., “Increased surface expression of the membrane glycoprotein IIb/IIIa complex induced by platelet activation: Relationships to the binding of fibrinogen and platelet aggregation”, Blood 70(1987):475-483. The purified human fibrinogen receptor (IIb/IIIa) was diluted from stock solutions to 1.0 μg/mL in Tris-buffered saline containing 1.0 mM Ca^++, Mg^++, and Mn^++, pH 7.4 (TBS^+++). The diluted receptor was immediately transferred to Nalge Nunc-Immuno microtiter plates at 100 μL/well (100 ng receptor/well). The plates were sealed and incubated overnight at 4° C. to allow the receptors to bind to the wells. All remaining steps were at room temperature. The assay plates were emptied and 200 μL of 1% RIA grade BSA in TBS^+++ (TBS^+++/BSA) were added to block exposed plastic surfaces. Following a 2 hour incubation, the assay plates were washed with TBS^+++ using a 96 well plate washer. Logarithmic serial dilution of the test compound and controls were made starting at a stock concentration of […] and using 2 nM biotinylated vitronectin in TBS^+++/BSA as the diluent. This premixing of labeled ligand with test (or control) ligand, and subsequent transfer of 50 μL aliquots to the assay plate was carried out with a CETUS Propette robot; the final concentration of the labeled ligand was 1 nM and the highest concentration of test compound was 1.0×10^−4 M. The competition occurred for two hours after which all wells were washed with a plate washer as before. Affinity purified horseradish peroxidase labeled goat anti-biotin antibody was diluted 1:2000 in TBS^+++/BSA and 125 μL were added to each well. After 45 minutes, the plates were washed and incubated with […] substrate in 100 mM/L citrate buffer, pH 5.0. The plate was read with a microtiter plate reader at a wavelength of 450 nm and when the maximum-binding control wells reached an absorbance of about 1.0, the final A450 were recorded for analysis. The data were analyzed using a macro written for use with the EXCELJ spreadsheet program. The mean, standard deviation, and %CV were determined for duplicate concentrations. The mean A450 values were normalized to the mean of four maximum-binding controls (no competitor added)(B-MAX). The normalized values were subjected to a four parameter curve fit algorithm, [Robard et al., Int.

Experiment [3] concerns the target T3, αVβ6 (HT-29 human colon carcinoma cells) (Homo sapiens, UniProt P06756+P18564).
T3 construct: endogenous in cells; host or cells: HT-29 human colon carcinoma cells
In words: HT-29 cell adhesion assay (adhesion to immobilized LAP). The class given is cell-based. The conditions noted are these: selectivity ratio: IC50 αVβ6 (HT-29) over IC50 β3. The method, then:
To evaluate compound potency for membrane-bound αVβ6 an additional cell-based adhesion assay was established using the HT-29 human colon carcinoma cell line. High surface expression of αVβ6 on HT-29 cells was confirmed by flow cytometry. Conditions were established in which cell adhesion to immobilized human latency associated peptide (LAP) was mediated by the αVβ6, as determined by a panel of integrin-specific, neutralizing monoclonal antibodies. Briefly, cells were incubated with inhibitor in the presence of 200 uM Mn^2+, allowed to adhere to immobilized LAP, washed, and adherent cells are detected by quantifying endogenous alkaline phosphatase using para-nitrophenyl phosphate. An 8-point dose-response curve using either 10-fold or 3-fold dilutions of compound was evaluated by fitting a four-parameter logistic, nonlinear model (using SAS). The compounds evaluated were relatively ineffective at inhibition of αVβ6-mediated cell adhesion. The selective antagonism of the αVβ3 integrin is viewed as desirable in this class of compounds, as αVβ6 may also play a role in normal physiological processes of tissue repair and cellular turnover that routinely occur in the skin and pulmonary tissues.

T3 sequence (P06756 31-889 limits assumed): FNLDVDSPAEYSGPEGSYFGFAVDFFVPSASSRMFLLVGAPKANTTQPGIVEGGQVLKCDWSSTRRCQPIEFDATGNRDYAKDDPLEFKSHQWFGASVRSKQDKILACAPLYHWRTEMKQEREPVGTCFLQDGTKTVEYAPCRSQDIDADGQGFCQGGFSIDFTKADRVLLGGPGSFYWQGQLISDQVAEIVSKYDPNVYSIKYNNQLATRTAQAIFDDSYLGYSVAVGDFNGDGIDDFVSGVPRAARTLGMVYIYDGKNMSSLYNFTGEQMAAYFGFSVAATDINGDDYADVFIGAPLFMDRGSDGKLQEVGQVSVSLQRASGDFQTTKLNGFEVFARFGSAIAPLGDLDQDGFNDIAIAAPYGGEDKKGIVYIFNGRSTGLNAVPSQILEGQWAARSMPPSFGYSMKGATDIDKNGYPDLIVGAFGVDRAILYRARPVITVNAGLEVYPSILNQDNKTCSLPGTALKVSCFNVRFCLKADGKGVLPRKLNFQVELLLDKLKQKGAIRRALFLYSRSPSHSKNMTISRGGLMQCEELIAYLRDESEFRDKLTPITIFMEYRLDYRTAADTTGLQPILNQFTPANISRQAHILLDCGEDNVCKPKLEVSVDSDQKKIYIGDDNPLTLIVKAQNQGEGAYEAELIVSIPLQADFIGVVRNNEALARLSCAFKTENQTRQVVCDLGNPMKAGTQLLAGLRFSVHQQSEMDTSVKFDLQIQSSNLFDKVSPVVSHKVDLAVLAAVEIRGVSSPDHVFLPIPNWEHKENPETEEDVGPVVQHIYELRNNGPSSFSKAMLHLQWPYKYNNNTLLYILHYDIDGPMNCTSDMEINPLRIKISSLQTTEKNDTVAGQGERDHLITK
T3 sequence (P06756 891-1048 partner limits assumed): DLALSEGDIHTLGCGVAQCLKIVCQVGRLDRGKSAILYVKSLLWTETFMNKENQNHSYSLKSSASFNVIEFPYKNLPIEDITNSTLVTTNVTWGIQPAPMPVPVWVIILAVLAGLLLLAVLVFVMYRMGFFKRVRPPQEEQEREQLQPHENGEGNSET
T3 sequence (P18564 22-788): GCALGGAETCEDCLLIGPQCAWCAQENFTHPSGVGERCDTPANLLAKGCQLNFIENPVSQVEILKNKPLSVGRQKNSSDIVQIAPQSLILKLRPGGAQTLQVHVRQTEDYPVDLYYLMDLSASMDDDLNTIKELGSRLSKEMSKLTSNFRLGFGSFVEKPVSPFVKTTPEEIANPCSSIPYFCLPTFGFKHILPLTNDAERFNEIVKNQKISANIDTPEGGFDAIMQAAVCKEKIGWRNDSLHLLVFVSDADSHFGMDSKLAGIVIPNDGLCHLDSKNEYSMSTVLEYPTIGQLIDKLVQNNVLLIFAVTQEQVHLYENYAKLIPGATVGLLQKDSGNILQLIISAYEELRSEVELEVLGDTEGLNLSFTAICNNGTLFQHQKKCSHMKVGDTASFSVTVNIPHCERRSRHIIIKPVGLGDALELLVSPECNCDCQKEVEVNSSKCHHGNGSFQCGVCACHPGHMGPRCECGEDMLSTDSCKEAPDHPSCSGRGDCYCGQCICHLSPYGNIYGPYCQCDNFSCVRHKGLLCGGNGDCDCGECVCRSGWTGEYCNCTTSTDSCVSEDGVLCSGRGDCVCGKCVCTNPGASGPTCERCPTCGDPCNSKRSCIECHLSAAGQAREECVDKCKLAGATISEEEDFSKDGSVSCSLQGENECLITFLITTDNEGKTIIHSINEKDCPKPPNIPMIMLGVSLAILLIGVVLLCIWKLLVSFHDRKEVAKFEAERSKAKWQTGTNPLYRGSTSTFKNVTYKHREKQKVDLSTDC
T1 sequence (P06756 31-889 limits assumed): as the sequence (P06756 31-889 limits assumed) above
T1 sequence (P06756 891-1048 partner limits assumed): as the sequence (P06756 891-1048 partner limits assumed) above
T1 sequence (P05106 27-788): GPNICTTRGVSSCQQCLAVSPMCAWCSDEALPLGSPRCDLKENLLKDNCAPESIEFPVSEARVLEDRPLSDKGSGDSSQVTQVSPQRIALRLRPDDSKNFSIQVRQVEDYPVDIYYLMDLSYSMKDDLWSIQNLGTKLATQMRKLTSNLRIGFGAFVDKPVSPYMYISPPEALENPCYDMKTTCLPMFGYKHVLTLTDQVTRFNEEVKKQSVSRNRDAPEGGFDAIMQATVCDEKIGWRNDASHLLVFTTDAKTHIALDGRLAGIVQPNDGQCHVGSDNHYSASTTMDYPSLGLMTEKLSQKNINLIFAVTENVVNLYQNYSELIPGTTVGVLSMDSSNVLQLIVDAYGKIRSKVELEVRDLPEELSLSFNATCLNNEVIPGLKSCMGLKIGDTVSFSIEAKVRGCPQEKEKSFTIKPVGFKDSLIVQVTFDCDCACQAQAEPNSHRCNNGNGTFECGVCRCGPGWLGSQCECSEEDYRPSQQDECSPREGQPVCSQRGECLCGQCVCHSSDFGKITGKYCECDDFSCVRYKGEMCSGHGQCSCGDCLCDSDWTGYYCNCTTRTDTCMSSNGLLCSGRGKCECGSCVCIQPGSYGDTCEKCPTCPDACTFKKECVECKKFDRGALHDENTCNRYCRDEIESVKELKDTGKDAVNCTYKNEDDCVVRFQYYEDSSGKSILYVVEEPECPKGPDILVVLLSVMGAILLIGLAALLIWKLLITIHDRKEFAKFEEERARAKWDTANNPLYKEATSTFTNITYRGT
T2 sequence (P08514 32-887 limits assumed): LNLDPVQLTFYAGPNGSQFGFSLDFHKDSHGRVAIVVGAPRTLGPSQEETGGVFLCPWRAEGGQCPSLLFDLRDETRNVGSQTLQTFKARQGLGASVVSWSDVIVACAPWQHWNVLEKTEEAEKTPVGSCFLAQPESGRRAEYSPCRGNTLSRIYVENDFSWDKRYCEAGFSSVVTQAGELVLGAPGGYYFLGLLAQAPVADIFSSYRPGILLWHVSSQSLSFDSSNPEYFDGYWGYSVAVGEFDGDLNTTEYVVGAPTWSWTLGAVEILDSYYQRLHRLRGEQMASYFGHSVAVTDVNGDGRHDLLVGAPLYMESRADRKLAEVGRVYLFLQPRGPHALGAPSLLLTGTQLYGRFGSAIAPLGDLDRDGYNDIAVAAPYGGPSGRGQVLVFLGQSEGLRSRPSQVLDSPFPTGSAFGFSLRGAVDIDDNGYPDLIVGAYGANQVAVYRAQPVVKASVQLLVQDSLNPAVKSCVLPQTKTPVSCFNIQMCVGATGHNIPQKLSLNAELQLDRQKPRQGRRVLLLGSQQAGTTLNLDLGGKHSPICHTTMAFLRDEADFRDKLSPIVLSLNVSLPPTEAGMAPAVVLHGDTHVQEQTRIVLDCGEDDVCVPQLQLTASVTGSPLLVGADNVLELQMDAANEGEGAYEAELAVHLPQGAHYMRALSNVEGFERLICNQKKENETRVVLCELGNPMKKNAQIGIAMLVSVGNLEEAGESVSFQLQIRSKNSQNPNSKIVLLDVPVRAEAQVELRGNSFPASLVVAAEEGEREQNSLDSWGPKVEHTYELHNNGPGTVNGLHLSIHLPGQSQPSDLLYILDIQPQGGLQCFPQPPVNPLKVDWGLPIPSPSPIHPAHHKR
T2 sequence (P08514 891-1039 partner limits assumed): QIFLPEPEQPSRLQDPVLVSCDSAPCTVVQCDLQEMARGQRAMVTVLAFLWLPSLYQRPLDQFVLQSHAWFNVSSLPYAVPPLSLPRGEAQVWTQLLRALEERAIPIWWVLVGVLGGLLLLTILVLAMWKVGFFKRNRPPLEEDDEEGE
T2 sequence (P05106 27-788): as the sequence (P05106 27-788) above

The IC50 is the midpoint of a concentration-inhibition curve. With `O=C(O)C(F)(F)F.O=C(O)CC1(Cc2nc(CCCCNc3ccccn3)no2)CCCC1` [Example 4, [1-({3-[4-(pyridin-2-ylamino)butyl]-1,2,4-oxadiazol-5-yl}methyl)cyclopentyl]-acetic acid], the IC50 in experiment [1] is < 10 µM. Also, the “SPRA AIIbB3 Selectivity* IIbIIIa/β3” value in experiment [2] is “++ (Selectivity Ratio of 10-100 ++)”. For the same molecule, the “HT-29 β-6 Selectivity* (β6/β3)” value in experiment [3] was “+++ (Selectivity Ratio >100 +++)”.
For the molecule `CC(C)(CC(=O)O)Cc1nc(CCCc2ccc3c(n2)NCCC3)no1.O=C(O)C(F)(F)F` [Example 12, 3,3-dimethyl-4-{3-[3-(5,6,7,8-tetrahydro-1,8-naphthyridin-2-yl)propyl]-1,2,4-oxadiazol-5-yl}butanoic acid], in experiment [1], the IC50 is < 10 µM. The “SPRA AIIbB3 Selectivity* IIbIIIa/β3” value in experiment [2] is “+++ (Selectivity Ratio >100 +++)”. Moreover, in experiment [3], the “HT-29 β-6 Selectivity* (β6/β3)” value is “+++ (Selectivity Ratio >100 +++)”.
For `O=C(O)C(F)(F)F.O=C(O)CC(Cc1nc(CCCc2ccc3c(n2)NCCC3)no1)c1ccc2c(c1)OCO2` (stereo not drawn) [Example 16, 3-(1,3-benzodioxol-5-yl)-4-{3-[3-(5,6,7,8-tetrahydro-1,8-naphthyridin-2-yl)propyl]-1,2,4-oxadiazol-5-yl}butanoic acid], in experiment [1], the IC50 was < 10 µM. Further, the “SPRA AIIbB3 Selectivity* IIbIIIa/β3” value in experiment [2] was “+++ (Selectivity Ratio >100 +++)”. Also, the “HT-29 β-6 Selectivity* (β6/β3)” value in experiment [3] is recorded as “+++ (Selectivity Ratio >100 +++)”.
Consider `O=C(O)CC(Cc1nc(CCCCNc2ccccn2)no1)c1ccc2c(c1)OCO2` (stereo not drawn) [Example 17, 3-(1,3-benzodioxol-5-yl)-4-{3-[4-(pyridin-2-ylamino)butyl]-1,2,4-oxadiazol-5-yl}butanoic acid], for which the IC50 in experiment [1] was < 10 µM. Also, the “SPRA AIIbB3 Selectivity* IIbIIIa/β3” value in experiment [2] is recorded as “++ (Selectivity Ratio of 10-100 ++)”. Further, the “HT-29 β-6 Selectivity* (β6/β3)” value in experiment [3] is “+++ (Selectivity Ratio >100 +++)”.
For the molecule `O=C(O)C(F)(F)F.O=C(O)CC(Cc1nc(CCCc2ccc3c(n2)NCCC3)no1)c1cnc2ccccc2c1` (stereo not drawn) [Example 18, 3-quinolin-3-yl-4-{3-[3-(5,6,7,8-tetrahydro-1,8-naphthyridin-2-yl)propyl]-1,2,4-oxadiazol-5-yl}butanoic acid], the half-maximal inhibitory concentration (IC50) in experiment [1] is < 10 µM. For the same molecule, the “SPRA AIIbB3 Selectivity* IIbIIIa/β3” value in experiment [2] was “+++ (Selectivity Ratio >100 +++)”. In experiment [3], the “HT-29 β-6 Selectivity* (β6/β3)” value is reported as “+++ (Selectivity Ratio >100 +++)”.
For the molecule `O=C(O)C(F)(F)F.O=C(O)CC(Cc1nc(CCCCNc2ccccn2)no1)c1cnc2ccccc2c1` (stereo not drawn) [Example 19, 3-quinolin-3-yl-4-{3-[4-(pyridin-2-ylamino)butyl]-1,2,4-oxadiazol-5-yl}-butanoic acid], the half-inhibitory concentration (IC50) in experiment [1] was < 10 µM. Besides, the “SPRA AIIbB3 Selectivity* IIbIIIa/β3” value in experiment [2] is “++ (Selectivity Ratio of 10-100 ++)”. Moreover, in experiment [3], the “HT-29 β-6 Selectivity* (β6/β3)” value was “+++ (Selectivity Ratio >100 +++)”.
As to `COc1cccc(C(CC(=O)O)Cc2nc(CCCc3ccc4c(n3)NCCC4)no2)c1.O=C(O)C(F)(F)F` (stereo not drawn) [Example 20, 3-(3-methoxyphenyl)-4-{3-[3-(5,6,7,8-tetrahydro-1,8-naphthyridin-2-yl)propyl]-1,2,4-oxadiazol-5-yl}butanoic acid], in experiment [1], the 50% inhibitory concentration (IC50) was < 10 µM. Besides, the “SPRA AIIbB3 Selectivity* IIbIIIa/β3” value in experiment [2] is on record as “+++ (Selectivity Ratio >100 +++)”. The “HT-29 β-6 Selectivity* (β6/β3)” value in experiment [3] is given as “+++ (Selectivity Ratio >100 +++)”.
Take `COc1cccc(C(CC(=O)O)Cc2nc(CCCCNc3ccccn3)no2)c1.O=C(O)C(F)(F)F` (stereo not drawn) [Example 21, 3-(3-methoxyphenyl)-4-{3-[4-(pyridin-2-ylamino)butyl]-1,2,4-oxadiazol-5-yl}butanoic acid]: in experiment [1], the IC50 is < 10 µM. The “SPRA AIIbB3 Selectivity* IIbIIIa/β3” value in experiment [2] is listed as “++ (Selectivity Ratio of 10-100 ++)”. Moreover, the “HT-29 β-6 Selectivity* (β6/β3)” value in experiment [3] is given as “+++ (Selectivity Ratio >100 +++)”.
Consider `COc1ccc(C(CC(=O)O)Cc2nc(CCCc3ccc4c(n3)NCCC4)no2)cc1.O=C(O)C(F)(F)F` (stereo not drawn) [Example 22, 3-(4-methoxyphenyl)-4-{3-[3-(5,6,7,8-tetrahydro-1,8-naphthyridin-2-yl)propyl]-1,2,4-oxadiazol-5-yl}butanoic acid], for which the IC50 in experiment [1] is < 10 µM. The “SPRA AIIbB3 Selectivity* IIbIIIa/β3” value in experiment [2] is given as “+++ (Selectivity Ratio >100 +++)”. Also, in experiment [3], the “HT-29 β-6 Selectivity* (β6/β3)” value is “+++ (Selectivity Ratio >100 +++)”.
Take `COc1ccc(C(CC(=O)O)Cc2nc(CCCCNc3ccccn3)no2)cc1.O=C(O)C(F)(F)F` (stereo not drawn) [Example 23, 3-(4-methoxyphenyl)-4-{3-[4-(pyridin-2-ylamino)butyl]-1,2,4-oxadiazol-5-yl}butanoic acid]: in experiment [1], the IC50 is < 10 µM. Further, the “SPRA AIIbB3 Selectivity* IIbIIIa/β3” value in experiment [2] is “++ (Selectivity Ratio of 10-100 ++)”. Further, in experiment [3], the “HT-29 β-6 Selectivity* (β6/β3)” value was “+++ (Selectivity Ratio >100 +++)”.
For `O=C(O)C(F)(F)F.O=C(O)CC(Cc1nc(CCCc2ccc3c(n2)NCCC3)no1)c1cccc(F)c1` (stereo not drawn) [Example 24, 3-(3-fluorophenyl)-4-{3-[3-(5,6,7,8-tetrahydro-1,8-naphthyridin-2-yl)propyl]-1,2,4-oxadiazol-5-yl}butanoic acid], in that order: < 10 µM, “+++ (Selectivity Ratio >100 +++)” and “+++ (Selectivity Ratio >100 +++)”.
For `O=C(O)C(F)(F)F.O=C(O)CC(Cc1nc(CCCCNc2ccccn2)no1)c1cccc(F)c1` (stereo not drawn) [Example 25, 3-(3-fluorophenyl)-4-{3-[4-(pyridin-2-ylamino)butyl]-1,2,4-oxadiazol-5-yl}butanoic acid trifluoroacetate], in that order: < 10 µM, “++ (Selectivity Ratio of 10-100 ++)” and “+++ (Selectivity Ratio >100 +++)”.
